Data taken from patent US9918975B2, “Method for improving dissolution of anticoagulant agent” (Daiichi Sankyo Company, Limited, priority 2010, dated 2018).

Test: Solubility of compound I in aqueous solutions
Format: physicochemical

solubility (neutral aqueous solutions (e.g., a neutral buffer)): reduced solubility
solubility (strongly acidic aqueous solutions): favorable solubility
Structure (SMILES): CN1CCc2nc(C(=O)N[C@@H]3C[C@@H](C(=O)N(C)C)CC[C@@H]3NC(=O)C(=O)Nc3ccc(Cl)cn3)sc2C1 [compound I, N^1-(5-chloropyridin-2-yl)-N^2-((1S,2R,4S)-4-[(dimethylamino)carbonyl]-2-{[(5-methyl-4,5,6,7-tetrahydrothiazolo[5,4-c]pyridin-2-yl)carbonyl]amino}cyclohexyl)ethanediamide]
